The text below walks through data of ChEMBL document CHEMBL3400015, “Tertiary amides of Salinomycin: A new group of antibacterial agents against Bacillus anthracis and methicillin-resistant Staphylococcus epidermidis” (Bioorg Med Chem Lett, 2015).

Values after ≈ are worked out from the molar mass of the structure shown.

Format in all cases: functional
One assay deals with Staphylococcus aureus. The assay can be described thus: Antimicrobial activity against Staphylococcus aureus ATCC 6538 after 18 hrs by twofold serial broth dilution method. To be noted: ATCC 6538, 18 h.
Assay [1] relates to Staphylococcus epidermidis. As to the kind of experiment: Antimicrobial activity against Staphylococcus epidermidis ATCC 12228 after 18 hrs by twofold serial broth dilution method. To be noted: ATCC 12228, 18 h. A general note: Broth dilution looks for growth in wells or tubes with falling amounts of substance.
In another assay the test system is Pseudomonas aeruginosa. The assay can be described thus: Antimicrobial activity against Pseudomonas aeruginosa ATCC 15442 after 18 hrs by twofold serial broth dilution method. The conditions noted are these: ATCC 15442, 18 h.
Assay [2] deals with Staphylococcus epidermidis. As to the kind of experiment: Bactericidal activity against Staphylococcus epidermidis ATCC 12228 after 24 hrs. The conditions noted are these: ATCC 12228, 24 h, read-out: MBC99.9.
For assay [3], the system named is Escherichia coli. As to the kind of experiment: Bactericidal activity against Escherichia coli ATCC 25922 after 24 hrs. The conditions noted are these: ATCC 25922, 24 h, read-out: MBC99.9.
Assay [4] deals with Escherichia coli. As to the kind of experiment: Bactericidal activity against Escherichia coli NCTC 8196 after 24 hrs. To be noted: NCTC 8196, 24 h, read-out: MBC99.9.
The subject of assay [5] is Staphylococcus epidermidis. As to the kind of experiment: Antimicrobial activity against methicillin-resistant Staphylococcus epidermidis isolate 403/10 after 18 hrs by twofold serial broth dilution method. The conditions noted are these: isolate 403/10, 18 h.
For assay [6], the system named is Staphylococcus epidermidis. As to the kind of experiment: Antimicrobial activity against methicillin-resistant Staphylococcus epidermidis isolate 404/10 after 18 hrs by twofold serial broth dilution method. To be noted: isolate 404/10, 18 h.
The subject of assay [7] is Staphylococcus epidermidis. As to the kind of experiment: Antimicrobial activity against methicillin-resistant Staphylococcus epidermidis isolate 405/10 after 18 hrs by twofold serial broth dilution method. The conditions noted are these: isolate 405/10, 18 h.
In assay [8] the test system is Staphylococcus epidermidis. As to the kind of experiment: Antimicrobial activity against methicillin-resistant Staphylococcus epidermidis isolate 461/11 after 18 hrs by twofold serial broth dilution method. The conditions noted are these: isolate 461/11, 18 h.
Assay [9] has as its system Staphylococcus epidermidis. As to the kind of experiment: Antimicrobial activity against methicillin-resistant Staphylococcus epidermidis isolate 470/11 after 18 hrs by twofold serial broth dilution method. To be noted: isolate 470/11, 18 h.
For assay [10], the system named is Staphylococcus epidermidis. The assay can be described thus: Bactericidal activity against methicillin-resistant Staphylococcus epidermidis isolate 404/10 after 24 hrs. The conditions noted are these: isolate 404/10, 24 h, read-out: MBC99.9.
Assay [11] deals with Staphylococcus epidermidis. As to the kind of experiment: Bactericidal activity against methicillin-resistant Staphylococcus epidermidis isolate 405/10 after 24 hrs. To be noted: isolate 405/10, 24 h, read-out: MBC99.9.
Assay [12] has as its system Staphylococcus epidermidis. As to the kind of experiment: Bactericidal activity against methicillin-resistant Staphylococcus epidermidis isolate 422/10 after 24 hrs. To be noted: isolate 422/10, 24 h, read-out: MBC99.9.
Assay [13] has as its system Staphylococcus epidermidis. The assay can be described thus: Bactericidal activity against methicillin-resistant Staphylococcus epidermidis isolate 461/11 after 24 hrs. To be noted: isolate 461/11, 24 h, read-out: MBC99.9.
For assay [14], the system named is Staphylococcus epidermidis. As to the kind of experiment: Bactericidal activity against methicillin-resistant Staphylococcus epidermidis isolate 469/11 after 24 hrs. To be noted: isolate 469/11, 24 h, read-out: MBC99.9.
Assay [15] deals with Staphylococcus epidermidis. The assay can be described thus: Ratio of ciprofloxacin MIC to compound MIC for methicillin-resistant Staphylococcus epidermidis clinical isolate after 18 hrs by twofold serial broth dilution method.

Turning to `CCCN(CCC)C(=O)[C@H](CC)[C@H]1CC[C@H](C)[C@H]([C@@H](C)[C@H](O)[C@H](C)C(=O)[C@H](CC)[C@H]2O[C@]3(C=C[C@@H](O)[C@]4(CC[C@@](C)([C@H]5CC[C@](O)(CC)[C@H](C)O5)O4)O3)[C@H](C)C[C@@H]2C)O1`, the MIC – broadly, the least concentration at which growth counts as inhibited – was 1 mg/L (≈ 1.2 µM) against Staphylococcus aureus; 2 mg/L (≈ 2.4 µM) in assay [1]; above 256 mg/L in the assay on Pseudomonas aeruginosa; 4 mg/L (≈ 4.8 µM) in assay [5]; 4 mg/L (≈ 4.8 µM) in assay [6]; 8 mg/L (≈ 9.59 µM) in assay [7]. Further, the values for the MIC in assay [8] and in assay [9] were 4 mg/L (≈ 4.8 µM) and 8 mg/L (≈ 9.59 µM), respectively. Besides, the MBC in assay [2] was 256 mg/L (≈ 307 µM); in the assay with Escherichia coli [3], above 256 mg/L; in the assay on Escherichia coli [4], above 256 mg/L; in assay [10], 128 mg/L (≈ 153 µM); in assay [11], 128 mg/L (≈ 153 µM); in assay [12] it was 128 mg/L (≈ 153 µM). Also, the MBC in assay [13] and in assay [14] was 128 mg/L (≈ 153 µM) in each case. The Ratio in [15] was determined as 40.
Regarding `CCCCN(CCCC)C(=O)[C@H](CC)[C@H]1CC[C@H](C)[C@H]([C@@H](C)[C@H](O)[C@H](C)C(=O)[C@H](CC)[C@H]2O[C@]3(C=C[C@@H](O)[C@]4(CC[C@@](C)([C@H]5CC[C@](O)(CC)[C@H](C)O5)O4)O3)[C@H](C)C[C@@H]2C)O1`, the MIC in the assay with Staphylococcus aureus was 8 mg/L (≈ 9.28 µM); in [1], 8 mg/L (≈ 9.28 µM); against Pseudomonas aeruginosa, above 256 mg/L; in assay [5] it was 8 mg/L (≈ 9.28 µM); in [6], 8 mg/L (≈ 9.28 µM); in assay [7], 4 mg/L (≈ 4.64 µM). Besides, the MIC in assay [8] and in assay [9] was 8 mg/L (≈ 9.28 µM) in each case. Besides, the MBC in assay [2] was above 256 mg/L; with Escherichia coli [3], above 256 mg/L; in the assay with Escherichia coli [4], above 256 mg/L; in assay [10] it was above 256 mg/L; in assay [11], 128 mg/L (≈ 148 µM); in assay [12], 256 mg/L (≈ 297 µM). Further, the MBC in assay [13] and in [14] was above 256 mg/L in each case.
In the case of `CC[C@@H](C(=O)[C@@H](C)[C@@H](O)[C@H](C)[C@@H]1O[C@@H]([C@@H](CC)C(=O)N2CCOCC2)CC[C@@H]1C)[C@H]1O[C@]2(C=C[C@@H](O)[C@]3(CC[C@@](C)([C@H]4CC[C@](O)(CC)[C@H](C)O4)O3)O2)[C@H](C)C[C@@H]1C`, the MIC in the assay on Staphylococcus aureus stood at 128 mg/L (≈ 156 µM); in assay [1], 128 mg/L (≈ 156 µM); in the assay with Pseudomonas aeruginosa, 256 mg/L (≈ 312 µM); in assay [5] it was 256 mg/L (≈ 312 µM); in [6], 256 mg/L (≈ 312 µM); in assay [7], 256 mg/L (≈ 312 µM). Further, the MIC is above 256 mg/L in [8] and 256 mg/L (≈ 312 µM) in assay [9]. The MBC (in assay [2]; in the assay with Escherichia coli [3]; in the assay on Escherichia coli [4]; in assay [10]; in [11]; in [12]) was above 256 mg/L in each case. The MBC in assay [13] and in assay [14] was above 256 mg/L throughout.
Take `CC[C@@H](C(=O)[C@@H](C)[C@@H](O)[C@H](C)[C@@H]1O[C@@H]([C@@H](CC)C(=O)N(CCO)CCO)CC[C@@H]1C)[C@H]1O[C@]2(C=C[C@@H](O)[C@]3(CC[C@@](C)([C@H]4CC[C@](O)(CC)[C@H](C)O4)O3)O2)[C@H](C)C[C@@H]1C`: the MIC against Staphylococcus aureus is 4 mg/L (≈ 4.77 µM); in assay [1], 4 mg/L (≈ 4.77 µM); against Pseudomonas aeruginosa it was above 256 mg/L; in assay [5], 4 mg/L (≈ 4.77 µM); in [6] it was 4 mg/L (≈ 4.77 µM); in assay [7], 2 mg/L (≈ 2.39 µM). The MIC in [8] and in [9] was 4 mg/L (≈ 4.77 µM) throughout. The MBC in assay [2] is 256 mg/L (≈ 305 µM); with Escherichia coli [3], above 256 mg/L; with Escherichia coli [4] it was above 256 mg/L; in assay [10], 256 mg/L (≈ 305 µM); in [11] it was 128 mg/L (≈ 153 µM); in [12], 128 mg/L (≈ 153 µM). Moreover, the MBC in assay [13] came out at 128 mg/L (≈ 153 µM); in assay [14], 256 mg/L (≈ 305 µM). The Ratio in assay [15] is given as 40.
